Source: patent US11077052B1, “Selected multi-phase treatment for coronavirus respiratory infections” (priority 2020, dated 2021)

How the values were obtained:
Type in all cases: in vivo, human
[1] = test system: SARS-CoV-2; assay: Inhalation of the smelling salt by patients during the COVID-19 pandemic; details: liquid CBD added
Description: In another formula, in addition to the herbal infused alcohols and concentrated herbal extracts, liquid CBD was also added. […] Apparently, CBD has synergistic effect with the probiotic produced volatile therapeutic compounds. Towards the end of preparation, the multiple strain probiotics along with their bio-active peptides and volatile therapeutic growth end products were add to the formula. The above prepared formulas were placed in a plastic or glass container with a tight closure or in a cartridge with screw type closure. Prior to inhalation, the cap is removed and, using one nostril at a time, it is inhaled deeply to reach the bottom of each and every alveoli of the lung. Conversely, the composition can also be applied using a standard nebulizer with proper liquefaction of the ingredients using a suitable solvent such as water.
The preparation was tried on patients of all age groups and genders ranging from 5 years to 75 years. They were asked to inhale once in the morning and once in the evening if they are at home or office. If they have to go to public places or a crowded place, they were asked to inhale before and after visiting the place. […]
In addition to the ingredients listed in Table 3, further testing evaluated the addition of a minimal amount of ammonium carbonate. In another composition, sodium hypochlorite has been replaced by a minimal quantity of liquid chloroform. […]

[2] = test system: SARS-CoV-2; assay: Nasal irrigation with the Example 1 composition in people during the COVID-19 pandemic, judged by symptoms; details: added to the Example 1 composition
[3] = test system: SARS-CoV-2; assay: Oral probiotics liposome in test subjects and COVID-19 patients; details: acute cases of COVID-19
Text: Recommended daily dosages for the above prepared liquid antioxidant liposome are one dose of 1 ounce or two doses of one-half ounce each. This preparation was given to several test subjects of all ages who were monitored for coronavirus infection over a period of 5.5 months during the coronavirus pandemic period (February through middle of August 2020). […] In addition, the above preparation was given to a patient who had been infected with COVID-19. This patient recovered quickly, within one to two weeks.
The liposome also was evaluated with variations of ingredients to identify which appeared to provide the better effectiveness. The standard for comparison had the liposome prepared with, herbal extracts, CBD, ascorbic acid, sodium bicarbonate, and sodium ascorbate. However, the probiotics were not included. A first test version had the liposome prepared with ascorbic acid and herbal extracts only, without sodium ascorbate, sodium bicarbonate, CBD, and probiotics. A second test version had the liposome prepared with concentrated herbal extracts of clove, turmeric, and basil in combination with ascorbic acid and sodium ascorbate along with multiple probiotics strain, but without inclusion of their all other immunomodulins and growth end products. […]

## C=C(C)[C@@H]1CCC(C)=C[C@H]1c1c(O)cc(CCCCC)cc1O [CBD, Cannabidiol]
[1]
  effect of addition on efficacy of the inhaling smelling salt: significantly improved the efficacy
[2]
  effect of inclusion in the nasal irrigation formulation: significantly improved the nasal clearance
[3]
  effect of CBD in the liposome on recovery: significantly improved the recovery
